What was measured:
5XFAD mice = experiment: Elevated zero maze after ERGO treatment; format: in vivo, mouse
Experimental: To address our primary question whether longitudinal consumption of ERGO as a potent antioxidant benefit the brain, three cohorts of animals (n=12 non-treated WT control, n=12 non-treated 5XFAD, and n=18 ERGO-treated 5XFAD) were used (FIG. 3.2A). Starting at the age of 8 weeks, the animals were treated with high doses of ERGO solution (25-50 mg/Kg) formulated in double distilled (dd) water via oral gavage three times a week over the course of eight weeks. To reduce bias in the behavioral experiments with regard to the potential stress during gavage treatment, non-treated animals underwent the identical gavage process with the vehicle, water, only. The efficacy of the therapy was evaluated by behavioral testing, followed by three different non-invasive PET imaging sessions to assess biomarkers related to AD pathology. In addition to assessing Abeta levels and glucose metabolism using the [^11C]PIB and [^18F]FDG probes, respectively; we also tested for the first time whether oxidative stress could be used as an indicator of response to therapy using the [^11C]ERGO PET radioligand. […]
We recorded exploratory activity in open versus closed zones of a standard EZM during a 5-min trial. […] Closed zones had walls of approximately 30 cm height and light levels of 215-280 lux depending on where they were measured. […]

[1] = 90-minute dynamic PET scanning of [11C]ERGO biodistribution in the brain of 5XFAD mice; format: in vivo, mouse
Experimental: The dynamic acquisition was divided into twelve 5 sec frames, four 60 sec frames, five 120 sec frames, three 5 min frames, and six 10 min scans. The data from all possible lines of response (LOR) were saved in the list mode raw data format. The raw data were then binned into 3D sinograms with a span of 3 and ring difference of 47. The images were reconstructed into transaxial slices (128×128×159) with voxel sizes of 0.0815×0.0815×0.0796 cm^3, using the MAP algorithm with 16 subsets, 4 iterations, and a beta of 0.0468. For anatomical co-registration, immediately following the PET scans, the mice received a CT scan in a NanoSPECT/CT (Mediso, Wash. D.C.) at an X-ray beam intensity of 90 mAs and x-ray peak voltage of 45 kVp. The CT images were reconstructed into 170×170×186 voxels at a voxel size of 0.4×0.4×0.4 mm^3. The PET/CT images were uploaded into Amide software (www.sourceforge.com), co-registered to an MRI template made in-house, and volumetric regions-of-interest were drawn around the cortex, hippocampus, striatum, thalamus, and cerebellum in addition to the whole brain. The PET images were normalized to the injected dose, and the time-activity-curves (TACs) of the mean activity within the ROIs were estimated for the entire duration of the scans.
To test the distribution of ERGO non-invasively in vivo, approximately 37 MBq/0.1 mL of [^11C]ERGO probe was given to anesthetized 5XFAD mice (8-month-old, n=4) in single bolus intravenous (I.V.) injection via the lateral tail vein. The administration of the probe was simultaneous with the start of a 90-minute dynamic PET imaging, followed by subsequent CT scan. The PET images were normalized to the injected dose, and the time-activity-curves (TACs) of the mean activity within the ROIs were estimated for the entire duration of the scans. Within 5 min post I.V. injection, [^11C]ERGO can be detected in the brain parenchyma (FIG. 1.5A, top panel). […] Using an age-matched mouse brain template, the positron-emitted signal at different brain regions was quantified using AMIDE software. […]

Compound	adverse effects on activity or anxiety-like behavior (5XFAD mice; 5XFAD mice, ERGO 25-50 mg/Kg oral gavage three times a week over eight weeks)	time spent exploring the closed zones (5XFAD mice; ERGO-treated 5XFAD mice (each group), 5-min trial) [%]	time post I.V. injection at which the probe can be detected in the brain parenchyma ([1]; 8-month-old, approx. 37 MBq/0.1 mL single I.V. bolus) [min]	retention of the probe in the brain ([1]; 30 min post radiotracer injection)	regional distribution of the probe in the brain (PET signal) ([1]; approx. 37 MBq/0.1 mL I.V., 90-min dynamic PET)
C[N+](C)(C)[C@@H](Cc1c[nH]c(=S)[nH]1)C(=O)[O-] [ERGO, L-ergothioneine]	no adverse effects	~60	–	–	–
C[N+](C)([11CH3])[C@@H](Cc1c[nH]c(=S)[nH]1)C(=O)[O-] [[^11C]ERGO]	–	–	≤ 5	still remained in the brain	high concentration in the cerebellum and cortex
